# Values quoted from earlier work as cited in patent publication US6391843B1, “Chemical linker compositions” (Colgate-Palmolive Co., priority 1996, dated 2002).
# Tested on: insect
# Details: hard surface cleaning composition
substance,measurement,value
Methylneodecanamide [MNDA],amount of MNDA necessary to deposit to have one day efficacy,10 micrograms of MNDA per cm2
